According to PMC8639918, “Mechanism of phosphate sensing and signaling revealed by rice SPX1-PHR2 complex structure” (Nature Communications, 2021):
Numbering of substitutions follows the chain as printed.

How the values were obtained:
Assay type in all cases: binding
SPX1^1–259 [1] = biological target: T1, SPX1^1–259 (Oryza sativa, UniProt Q69XJ0, Y25F/K29A/K151A); test: ITC; conditions: 25 °C; 20 mM HEPES/NaOH pH 7.5, 200 mM NaCl, 2 mM beta-mercaptoethanol
T1 construct: residues 1-259 (C-terminally truncated), N-terminal 10xHis-MsyB tag cut with TEV, E. coli BL21(DE3), monomer
T1 sequence (Q69XJ0 1-259 Y25F/K29A/K151A): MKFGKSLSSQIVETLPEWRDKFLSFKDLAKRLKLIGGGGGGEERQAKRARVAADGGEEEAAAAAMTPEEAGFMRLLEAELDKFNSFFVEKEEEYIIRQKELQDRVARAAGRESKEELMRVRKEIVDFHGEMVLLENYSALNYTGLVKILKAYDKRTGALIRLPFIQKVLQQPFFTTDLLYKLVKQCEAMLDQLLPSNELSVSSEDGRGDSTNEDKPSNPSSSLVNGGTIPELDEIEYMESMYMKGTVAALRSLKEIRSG

SPX1^1–259 [2] = biological target: T2, SPX1^1–259 (Oryza sativa, UniProt Q69XJ0); test: thermal shift assay (SYPRO Orange); conditions: 20 mM HEPES/NaOH pH 7.5, 200 mM NaCl; InsP6 0 to 250 μM
T2 construct: residues 1-259 (C-terminally truncated), N-terminal 10xHis-MsyB tag cut with TEV, E. coli BL21(DE3), monomer
T2 sequence (Q69XJ0 1-259): T1 sequence (Q69XJ0 1-259 Y25F/K29A/K151A) with F25Y, A29K, A151K

SPX1^1–259 [3] = biological target: T2, SPX1^1–259; test: ITC; conditions: 25 °C; 20 mM HEPES/NaOH pH 7.5, 200 mM NaCl, 2 mM beta-mercaptoethanol
Source text: ITC on SPX1^1–259 | In contrast to the moderate InsP6 binding ability of the wild-type protein

InsP6-SPX1-PHR2 complex = biological target: T3, InsP6-SPX1-PHR2 complex (Oryza sativa, UniProt Q69XJ0); test: X-ray crystal structure, […] Å; conditions: basic groove between SPX1 helices α1, α2 and α4; allosteric
T3 construct: SPX1 1-198 with T4 lysozyme fused to its C-terminus (crystallisation aid) plus Se-Met PHR2 248-380 (MYB and CC domains), tags cut with TEV, E. coli BL21(DE3), 1:1 heterodimer; with Protein PHOSPHATE STARVATION RESPONSE 2
T3 sequence (Q69XJ0 1-198): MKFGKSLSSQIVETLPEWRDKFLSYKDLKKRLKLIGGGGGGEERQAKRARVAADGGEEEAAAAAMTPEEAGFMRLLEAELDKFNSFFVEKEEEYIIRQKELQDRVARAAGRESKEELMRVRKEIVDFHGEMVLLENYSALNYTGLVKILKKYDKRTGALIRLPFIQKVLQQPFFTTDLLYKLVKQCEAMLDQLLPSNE
T3 sequence (Q6Z156 with tags, fused parts or gaps V263M/L278M/L295M/L340M partner): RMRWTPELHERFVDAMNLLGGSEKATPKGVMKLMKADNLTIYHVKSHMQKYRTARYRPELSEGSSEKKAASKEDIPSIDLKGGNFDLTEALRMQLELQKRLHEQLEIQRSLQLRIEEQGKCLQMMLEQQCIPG

SPX1^1–259▵N17 = biological target: T4, SPX1^1–259▵N17 (Oryza sativa, UniProt Q69XJ0); test: ITC; conditions: 25 °C; 20 mM HEPES/NaOH pH 7.5, 200 mM NaCl, 2 mM beta-mercaptoethanol
T4 construct: SPX1 1-259 without the N-terminal helix alpha1 (deltaN17, residues 1-17 deleted), N-terminal 10xHis-MsyB tag cut with TEV, E. coli BL21(DE3)
T4 sequence (Q69XJ0 18-259): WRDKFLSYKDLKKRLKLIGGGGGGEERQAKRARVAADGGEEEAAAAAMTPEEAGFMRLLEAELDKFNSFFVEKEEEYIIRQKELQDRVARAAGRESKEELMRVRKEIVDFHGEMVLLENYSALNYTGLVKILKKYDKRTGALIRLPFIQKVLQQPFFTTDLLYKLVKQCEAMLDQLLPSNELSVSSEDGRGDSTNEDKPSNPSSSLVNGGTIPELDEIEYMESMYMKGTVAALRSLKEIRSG

SPX1^1–259 [4] = biological target: T5, SPX1^1–259 (Oryza sativa, UniProt Q69XJ0, K147A); test: ITC
T5 construct: residues 1-259 (C-terminally truncated), N-terminal 10xHis-MsyB tag cut with TEV, E. coli BL21(DE3), monomer
T5 sequence (Q69XJ0 1-259 K147A): T1 sequence (Q69XJ0 1-259 Y25F/K29A/K151A) with F25Y, A29K, K147A, A151K
Source text: ITC on SPX1^1–259 | SPX1 K147A mutation had little effect on InsP6 binding affinity

Kd (SPX1^1–259 [3]): 5.5 ± 0.93 µM | Kd (SPX1^1–259▵N17): 34.1 ± 1.95 µM | Kd (SPX1^1–259 [4]): 5.69 ± 1.46 µM
Compound: O=P(O)(O)O[C@H]1[C@H](OP(=O)(O)O)[C@@H](OP(=O)(O)O)[C@H](OP(=O)(O)O)[C@@H](OP(=O)(O)O)[C@H]1OP(=O)(O)O [InsP6]
Kd (SPX1^1–259 [1]): the SPX1 mutant lost its InsP6-binding activity | Tm (SPX1^1–259 [2]): InsP6 could increase the melting temperature (Tm) of SPX1 greatly | X-ray crystal structure, 2.6 Å (InsP6-SPX1-PHR2 complex): each captured by an SPX1 molecule via a highly basic surface groove
